Inconclusive results and toxic doses are left out.
Tested on: P388 leukemia ip, CD2F1 mice, survival T/C
Assay: NCI In Vivo Anticancer Drug Screen. Data for tumor model P388 Leukemia (intraperitoneal) in CD2F1 (CDF1) mice
Details: endpoint: median survival time, higher = longer survival
Summary of the method: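 Mice carrying the transplanted tumor received test compound or vehicle. Survival was recorded in each group, and the value is the treated-group measurement divided by that of the vehicle-treated control group.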

[1] = dose: 50.0 mg/kg/injection, schedule: Q01DX005 (ip), vehicle: saline with Tween-80
[2] = dose: 100.0 mg/kg/injection, schedule: Q01DX005 (ip), vehicle: saline with Tween-80
[3] = dose: 200.0 mg/kg/injection, schedule: Q01DX005 (ip), vehicle: saline with Tween-80
[4] = dose: 50.0 mg/kg/injection, schedule: Q01DX009 (ip), vehicle: Klucel (hydroxypropylcellulose) (HPC)
[5] = dose: 100.0 mg/kg/injection, schedule: Q01DX009 (ip), vehicle: Klucel (hydroxypropylcellulose) (HPC)
[6] = dose: 200.0 mg/kg/injection, schedule: Q01DX009 (ip), vehicle: Klucel (hydroxypropylcellulose) (HPC)
[7] = dose: 25.0 mg/kg/injection, schedule: Q01DX009 (ip), vehicle: saline with Tween-80
[8] = dose: 50.0 mg/kg/injection, schedule: Q01DX009 (ip), vehicle: saline with Tween-80
[9] = dose: 100.0 mg/kg/injection, schedule: Q01DX009 (ip), vehicle: saline with Tween-80
[10] = dose: 200.0 mg/kg/injection, schedule: Q01DX009 (ip), vehicle: saline with Tween-80

CSc1nc(N)cc(C(F)(F)F)n1
T/C [1]: 88 % of control | T/C [2]: 99 % of control | T/C [3]: 97 % of control

Cn1c(CO)cnc1-c1ccccc1
T/C [4]: 99 % of control | T/C [5]: 100 % of control | T/C [6]: 97 % of control

Cc1ccc(S(=O)(=O)N2CCCN(S(=O)(=O)c3ccc(C)cc3)CCSCCCSCC2)cc1
T/C [7]: 98 % of control | T/C [8]: 87 % of control

CN(C)c1ccc(C=C2C(=O)CC(C)(C)CC2=O)cc1
T/C (dose: 25.0 mg/kg/injection, schedule: Q01DX009 (ip), vehicle: Klucel (hydroxypropylcellulose) (HPC)): 106 % of control | T/C [4]: 97 % of control | T/C [5]: 92 % of control | T/C [6]: 93 % of control

CC1=CC2OC34COC3CC(OC(=O)C(F)(F)F)C4(C)C2(C)CC1 (configuration not stated)
T/C (dose: 24.0 mg/kg/injection, schedule: Q04DX003 (ip), vehicle: saline with Tween-80): 120 % of control | T/C (dose: 37.5 mg/kg/injection, schedule: Q04DX003 (ip), vehicle: saline with Tween-80): 113 % of control | T/C (dose: 55.0 mg/kg/injection, schedule: Q04DX003 (ip), vehicle: saline with Tween-80): 112 % of control

c1cc2cc(-c3cc4ccc(C5=NCCN5)cc4[nH]3)[nH]c2cc1C1=NCCN1
T/C (dose: 100.0 mg/kg/injection, schedule: Q04DX003 (ip), vehicle: saline): 210 % of control | T/C (dose: 200.0 mg/kg/injection, schedule: Q04DX003 (ip), vehicle: saline): 189 % of control | T/C (dose: 400.0 mg/kg/injection, schedule: Q04DX003 (ip), vehicle: saline): 159 % of control

CC(C)(C)CC(C)(C)c1ccc(OCc2ccc(Cl)c(Cl)c2)cc1
T/C [8]: 100 % of control | T/C [9]: 100 % of control | T/C [10]: 91 % of control

O=c1[nH]c(=S)nc2nc[nH]n12
T/C [7]: 100 % of control | T/C [1]: 98 % of control | T/C [8]: 97 % of control | T/C [2]: 100 % of control | T/C [9]: 100 % of control | T/C [3]: 103 % of control | T/C [10]: 106 % of control

C=C[C@H](c1ccccc1O)c1cc(O)c(OC)cc1OC
T/C (dose: 31.0 mg/kg/injection, schedule: Q01DX005 (ip), vehicle: Klucel (hydroxypropylcellulose) (HPC)): 103 % of control | T/C (dose: 62.0 mg/kg/injection, schedule: Q01DX005 (ip), vehicle: Klucel (hydroxypropylcellulose) (HPC)): 103 % of control | T/C (dose: 124.0 mg/kg/injection, schedule: Q01DX005 (ip), vehicle: Klucel (hydroxypropylcellulose) (HPC)): 93 % of control | T/C (dose: 248.0 mg/kg/injection, schedule: Q01DX005 (ip), vehicle: Klucel (hydroxypropylcellulose) (HPC)): 94 % of control

CC1CC(C)(C)N=C(C(C)C)O1 (configuration not stated)
T/C (dose: 25.0 mg/kg/injection, schedule: Q04DX003 (ip), vehicle: saline with Tween-80): 109 % of control | T/C (dose: 50.0 mg/kg/injection, schedule: Q04DX003 (ip), vehicle: saline with Tween-80): 100 % of control | T/C (dose: 100.0 mg/kg/injection, schedule: Q04DX003 (ip), vehicle: saline with Tween-80): 100 % of control

Cc1cc2nc3c(nc2cc1C)CCCCCC3
T/C (dose: 85.5 mg/kg/injection, schedule: Q01DX001 (ip), vehicle: Klucel (hydroxypropylcellulose) (HPC)): 92 % of control | T/C (dose: 171.0 mg/kg/injection, schedule: Q01DX001 (ip), vehicle: Klucel (hydroxypropylcellulose) (HPC)): 90 % of control | T/C (dose: 342.0 mg/kg/injection, schedule: Q01DX001 (ip), vehicle: Klucel (hydroxypropylcellulose) (HPC)): 90 % of control

CC(=O)OCC12CCC(C)=CC1OC1C(OS(C)(=O)=O)C(=O)C2(C)C12CO2 (configuration not stated)
T/C (dose: 0.5 mg/kg/injection, schedule: Q01DX009 (ip), vehicle: saline): 100 % of control | T/C (dose: 1.0 mg/kg/injection, schedule: Q01DX009 (ip), vehicle: saline): 103 % of control | T/C (dose: 2.0 mg/kg/injection, schedule: Q01DX009 (ip), vehicle: saline): 109 % of control | T/C (dose: 4.0 mg/kg/injection, schedule: Q01DX009 (ip), vehicle: saline): 110 % of control

Source: PubChem BioAssay AID330 (DTP/NCI, 2004)
